From ChEMBL document CHEMBL4177669 (Bioorg Med Chem Lett, 2017)
In brackets after ≈: the same amount, converted by molar mass. Values belong to the molecule of their own block, whether it stands above or below them.

How the values were obtained:
[1] = Drug metabolism in human hepatocytes assessed as acyl glucoronidation at 10 […] after 30 to 120 mins by LC-MS analysis; type: ADME, cell-based, Hepatocyte
[2] = Drug metabolism in rat hepatocytes assessed as acyl glucoronidation at 10 […] after 30 to 120 mins by LC-MS analysis; type: ADME, cell-based, Hepatocyte
[3] = AUC in CD-1 mouse at 3 mg/kg, iv; type: ADME, organism-based; details: in vivo
[4] = Clearance in CD-1 mouse at 3 mg/kg, iv; type: ADME, organism-based; details: in vivo
[5] = Half life in CD-1 mouse at 3 mg/kg, iv; type: ADME, organism-based; details: in vivo
[6] = Half life in Wistar rat at 10 mg/kg, po; type: ADME, organism-based; details: in vivo
[7] = Cmax in Wistar rat at 10 mg/kg, po; type: ADME, organism-based; design: dose 10 mg/kg, route oral; details: in vivo
[8] = AUC in cynomolgus monkey at 10 mg/kg, po; type: ADME, organism-based, Macaca fascicularis; details: in vivo
[9] = Clearance in Wistar rat at 3 mg/kg, iv; type: ADME, organism-based; details: in vivo
[10] = Half life in cynomolgus monkey at 3 mg/kg, iv; type: ADME, organism-based, Macaca fascicularis; details: in vivo
[11] = AUC in CD-1 mouse at 10 mg/kg, po; type: ADME, organism-based; details: in vivo
[12] = Oral bioavailability in CD-1 mouse at 10 mg/kg; type: ADME, organism-based; details: in vivo
[13] = Cmax in cynomolgus monkey at 10 mg/kg, po; type: ADME, organism-based, Macaca fascicularis; design: dose 10 mg/kg, route oral; details: in vivo
[14] = Half life in CD-1 mouse at 1 mg/kg, iv; type: ADME, organism-based; details: in vivo
[15] = Volume of distribution at steady state in cynomolgus monkey at 3 mg/kg, iv; type: ADME, organism-based, Macaca fascicularis; details: in vivo, read-out: Vdss
[16] = Half life in cynomolgus monkey at 10 mg/kg, po; type: ADME, organism-based, Macaca fascicularis; details: in vivo
[17] = Half life in CD-1 mouse at 10 mg/kg, po; type: ADME, organism-based; details: in vivo
[18] = Thermodynamic solubility of the compound; type: physicochemical; details: read-out: Therm_solubility
[19] = Oral bioavailability in cynomolgus monkey at 10 mg/kg; type: ADME, organism-based, Macaca fascicularis; details: in vivo
[20] = AUC in cynomolgus monkey at 3 mg/kg, iv; type: ADME, organism-based, Macaca fascicularis; details: in vivo
[21] = Clearance in cynomolgus monkey at 3 mg/kg, iv; type: ADME, organism-based, Macaca fascicularis; details: in vivo
[22] = AUC in Wistar rat at 3 mg/kg, iv; type: ADME, organism-based; details: in vivo
[23] = Clearance in CD-1 mouse at 1 mg/kg, iv; type: ADME, organism-based; details: in vivo
[24] = AUC in Wistar rat at 10 mg/kg, po; type: ADME, organism-based; details: in vivo
[25] = Cmax in CD-1 mouse at 10 mg/kg, po; type: ADME, organism-based; design: dose 10 mg/kg, route oral; details: in vivo
[26] = Volume of distribution at steady state in Wistar rat at 3 mg/kg, iv; type: ADME, organism-based; details: in vivo, read-out: Vdss
[27] = Volume of distribution at steady state in CD-1 mouse at 1 mg/kg, iv; type: ADME, organism-based; details: in vivo, read-out: Vdss
[28] = AUC in CD-1 mouse at 1 mg/kg, iv; type: ADME, organism-based; details: in vivo
[29] = Half life in Wistar rat at 3 mg/kg, iv; type: ADME, organism-based; details: in vivo
[30] = Oral bioavailability in Wistar rat at 10 mg/kg; type: ADME, organism-based; details: in vivo
[31] = Drug metabolism in rat liver microsomes assessed as N-dealkylation; type: ADME, microsome
[32] = Drug metabolism in rat hepatocytes assessed as hydrolysis
[33] = Drug metabolism in rat hepatocytes assessed as oxidation

Structure (SMILES): C/C(=C\COc1ccccc1CN(C)C(=O)c1ccc(-c2ccco2)cc1)CCC(=O)O
half-life [6]: 2.5 h
Cmax [7]: 3800 ng/mL
AUC [8]: 6050 ng·h/mL
Drug metabolism [1]: Metabolite_Detected
clearance [9]: 7.2 mL/min/kg
half-life [10]: 1.8 h
AUC [11]: 16600 ng·h/mL
bioavailability [12]: 84%
Cmax [13]: 4190 ng/mL
half-life [14]: 5.8 h
Vd [15]: 1.3 L/kg
Drug metabolism [2]: Metabolite_Detected
half-life [16]: 1.1 h
half-life [17]: 4.3 h
solubility thermodynamic [18]: 190 µM (≈ 82.4 µg/mL)
bioavailability [19]: 29%
AUC [20]: 6200 ng·h/mL
clearance [21]: 8 mL/min/kg
AUC [22]: 4650 ng·h/mL
clearance [23]: 8.4 mL/min/kg
AUC [24]: 12500 ng·h/mL
Cmax [25]: 11100 ng/mL
AUC [3]: 3300 ng·h/mL
Vd [26]: 0.9 L/kg
Vd [27]: 2.6 L/kg
clearance [4]: 15 mL/min/kg
half-life [5]: 2.3 h
AUC [28]: 1980 ng·h/mL
half-life [29]: 4.5 h
bioavailability [30]: 82%

Structure (SMILES): CN(Cc1ccccc1OCCCCCC(=O)O)C(=O)c1ccc(-c2ccco2)cc1
Drug metabolism [1]: Metabolite_Detected
Drug metabolism [2]: Metabolite_Detected
AUC [3]: 1100 ng·h/mL
clearance [4]: 44 mL/min/kg
half-life [5]: 1.7 h

Structure (SMILES): CN(Cc1ccccc1OCCCCC(C)(C)C(=O)O)C(=O)c1ccc(-c2ccco2)cc1
Drug metabolism [1]: Metabolite_Detected
Drug metabolism [2]: Metabolite_Detected
AUC [3]: 48400 ng·h/mL
clearance [4]: 1.3 mL/min/kg
half-life [5]: 4.6 h

Structure (SMILES): CN(Cc1ccccc1OCCC/C=C/C(=O)O)C(=O)c1ccc(-c2ccco2)cc1
Drug metabolism [1]: Metabolite_Detected
Drug metabolism [2]: Metabolite_Detected
AUC [3]: 750 ng·h/mL
clearance [4]: 67 mL/min/kg
half-life [5]: 1.9 h

Structure (SMILES): C/C(=C\CCCOc1ccccc1CN(C)C(=O)c1ccc(-c2ccco2)cc1)C(=O)O
Drug metabolism [1]: Metabolite_Detected
Drug metabolism [2]: Metabolite_Detected
AUC [3]: 1300 ng·h/mL
clearance [4]: 4 mL/min/kg
half-life [5]: 1.2 h

Structure (SMILES): C/C(=C\C(=O)O)CCCOc1ccccc1CN(C)C(=O)c1ccc(-c2ccco2)cc1
Drug metabolism [1]: Metabolite_Detected
Drug metabolism [2]: Metabolite_Detected
AUC [3]: 4700 ng·h/mL
clearance [4]: 11 mL/min/kg
half-life [5]: 1.6 h

Structure (SMILES): O=C(O)CCCCCOc1ccccc1CN(C(=O)c1ccc(-c2ccco2)cc1)C1CC1
Drug metabolism [31]: Metabolite_Detected
Drug metabolism [32]: Metabolite_Detected
Drug metabolism [33]: Metabolite_Detected

Structure (SMILES): CN(Cc1ccccc1OCCC[C@@H]1C[C@@H]1C(=O)O)C(=O)c1ccc(-c2ccco2)cc1 (racemic)
Drug metabolism [1]: Metabolite_Detected
Drug metabolism [2]: Metabolite_Detected
AUC [3]: 30100 ng·h/mL
clearance [4]: 1.7 mL/min/kg
half-life [5]: 2.7 h

Structure (SMILES): CN(Cc1ccccc1OCCC[C@@H]1C[C@H]1C(=O)O)C(=O)c1ccc(-c2ccco2)cc1 (racemic)
Drug metabolism [1]: Metabolite_Detected
Drug metabolism [2]: Metabolite_Detected
AUC [3]: 40500 ng·h/mL
clearance [4]: 0.6 mL/min/kg
half-life [5]: 3.5 h

The remaining lines, values ahead:

Drug metabolism [1]: Metabolite_Detected
Drug metabolism [2]: Metabolite_Detected
AUC [3]: 11800 ng·h/mL
clearance [4]: 4 mL/min/kg
half-life [5]: 1.7 h
Structure (SMILES): CC(CCOc1ccccc1CN(C)C(=O)c1ccc(-c2ccco2)cc1)CCC(=O)O (stereo not drawn)

Drug metabolism [1]: Metabolite_Detected
Drug metabolism [2]: Metabolite_Detected
AUC [3]: 11400 ng·h/mL
clearance [4]: 3 mL/min/kg
half-life [5]: 2.8 h
Structure (SMILES): CC(CCCCOc1ccccc1CN(C)C(=O)c1ccc(-c2ccco2)cc1)C(=O)O (stereo not drawn)

Drug metabolism [1]: Metabolite_Detected
Drug metabolism [2]: Metabolite_Detected
AUC [3]: 77700 ng·h/mL
clearance [4]: 0.3 mL/min/kg
half-life [5]: 3.9 h
Structure (SMILES): C[C@H](CCCOc1ccccc1CN(C)C(=O)c1ccc(-c2ccco2)cc1)CC(=O)O

Drug metabolism [1]: Metabolite_Detected
Drug metabolism [2]: Metabolite_Detected
AUC [3]: 30800 ng·h/mL
clearance [4]: 1.3 mL/min/kg
half-life [5]: 2 h
Structure (SMILES): C[C@@H](CCCOc1ccccc1CN(C)C(=O)c1ccc(-c2ccco2)cc1)CC(=O)O
